Read-outs that look alike come from different tables or passages of the source. One block for each compound: values may come before it.
Key:
TRPM4 [1] = target: T1, TRPM4 (Rattus norvegicus, UniProt Q9ESQ5); assay: Whole-cell patch-clamp of TRPM4 currents in INS-1 cells perfused with buffered [Ca2+]i; format: cell-based; parameters: The channel was detected in INS-1 and RINm5F cell lines; endogenous in cells; host or cells: INS-1 (rat insulinoma beta-cell line); conditions: current amplitude at +80 mV
T1 sequence (Q9ESQ5 whole entry, the tested form may be a part): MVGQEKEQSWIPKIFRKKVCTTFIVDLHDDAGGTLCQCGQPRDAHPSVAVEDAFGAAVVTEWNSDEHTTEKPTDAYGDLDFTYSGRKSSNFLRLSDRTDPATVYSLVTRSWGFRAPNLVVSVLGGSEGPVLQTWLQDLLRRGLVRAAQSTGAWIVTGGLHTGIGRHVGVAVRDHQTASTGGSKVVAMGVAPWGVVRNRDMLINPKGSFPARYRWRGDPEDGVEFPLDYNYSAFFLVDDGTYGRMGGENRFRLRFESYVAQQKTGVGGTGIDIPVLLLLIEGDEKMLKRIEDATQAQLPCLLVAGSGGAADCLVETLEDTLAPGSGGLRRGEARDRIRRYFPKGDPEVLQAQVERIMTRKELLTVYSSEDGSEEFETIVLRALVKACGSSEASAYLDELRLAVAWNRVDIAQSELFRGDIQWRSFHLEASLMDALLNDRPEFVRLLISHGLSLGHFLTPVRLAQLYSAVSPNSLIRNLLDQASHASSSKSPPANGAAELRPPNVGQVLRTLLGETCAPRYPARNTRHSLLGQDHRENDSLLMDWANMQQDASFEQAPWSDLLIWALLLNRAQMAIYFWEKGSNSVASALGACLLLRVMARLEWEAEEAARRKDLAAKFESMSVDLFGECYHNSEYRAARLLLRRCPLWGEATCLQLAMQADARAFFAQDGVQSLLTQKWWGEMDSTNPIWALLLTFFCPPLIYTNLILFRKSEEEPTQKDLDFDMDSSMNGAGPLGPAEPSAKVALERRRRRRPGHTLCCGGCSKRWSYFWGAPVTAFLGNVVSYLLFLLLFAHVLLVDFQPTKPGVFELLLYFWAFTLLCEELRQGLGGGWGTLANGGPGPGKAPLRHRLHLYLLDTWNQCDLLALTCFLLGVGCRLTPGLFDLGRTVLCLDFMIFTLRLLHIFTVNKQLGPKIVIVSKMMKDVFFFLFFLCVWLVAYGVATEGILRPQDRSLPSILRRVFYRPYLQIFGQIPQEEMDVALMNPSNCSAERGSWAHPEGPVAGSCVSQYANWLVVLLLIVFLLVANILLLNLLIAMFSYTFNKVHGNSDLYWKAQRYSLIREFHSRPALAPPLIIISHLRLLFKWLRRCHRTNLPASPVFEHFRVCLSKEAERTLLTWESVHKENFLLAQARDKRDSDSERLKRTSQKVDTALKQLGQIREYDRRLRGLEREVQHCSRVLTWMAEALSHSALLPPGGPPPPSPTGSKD

TRPM4 [2] = target: T2, TRPM4 (Homo sapiens, UniProt Q8TD43); assay: Whole-cell patch-clamp of TRPM4 currents in TrexHEK-293 cells overexpressing TRPM4, buffered [Ca2+]i; format: cell-based; conditions: flag-TRPM4-TrexHEK293, current at +80 mV
T2 construct: expressed in transfected cells; host or cells: TrexHEK-293 (tetracycline-inducible HEK-293)
T2 sequence (Q8TD43 whole entry): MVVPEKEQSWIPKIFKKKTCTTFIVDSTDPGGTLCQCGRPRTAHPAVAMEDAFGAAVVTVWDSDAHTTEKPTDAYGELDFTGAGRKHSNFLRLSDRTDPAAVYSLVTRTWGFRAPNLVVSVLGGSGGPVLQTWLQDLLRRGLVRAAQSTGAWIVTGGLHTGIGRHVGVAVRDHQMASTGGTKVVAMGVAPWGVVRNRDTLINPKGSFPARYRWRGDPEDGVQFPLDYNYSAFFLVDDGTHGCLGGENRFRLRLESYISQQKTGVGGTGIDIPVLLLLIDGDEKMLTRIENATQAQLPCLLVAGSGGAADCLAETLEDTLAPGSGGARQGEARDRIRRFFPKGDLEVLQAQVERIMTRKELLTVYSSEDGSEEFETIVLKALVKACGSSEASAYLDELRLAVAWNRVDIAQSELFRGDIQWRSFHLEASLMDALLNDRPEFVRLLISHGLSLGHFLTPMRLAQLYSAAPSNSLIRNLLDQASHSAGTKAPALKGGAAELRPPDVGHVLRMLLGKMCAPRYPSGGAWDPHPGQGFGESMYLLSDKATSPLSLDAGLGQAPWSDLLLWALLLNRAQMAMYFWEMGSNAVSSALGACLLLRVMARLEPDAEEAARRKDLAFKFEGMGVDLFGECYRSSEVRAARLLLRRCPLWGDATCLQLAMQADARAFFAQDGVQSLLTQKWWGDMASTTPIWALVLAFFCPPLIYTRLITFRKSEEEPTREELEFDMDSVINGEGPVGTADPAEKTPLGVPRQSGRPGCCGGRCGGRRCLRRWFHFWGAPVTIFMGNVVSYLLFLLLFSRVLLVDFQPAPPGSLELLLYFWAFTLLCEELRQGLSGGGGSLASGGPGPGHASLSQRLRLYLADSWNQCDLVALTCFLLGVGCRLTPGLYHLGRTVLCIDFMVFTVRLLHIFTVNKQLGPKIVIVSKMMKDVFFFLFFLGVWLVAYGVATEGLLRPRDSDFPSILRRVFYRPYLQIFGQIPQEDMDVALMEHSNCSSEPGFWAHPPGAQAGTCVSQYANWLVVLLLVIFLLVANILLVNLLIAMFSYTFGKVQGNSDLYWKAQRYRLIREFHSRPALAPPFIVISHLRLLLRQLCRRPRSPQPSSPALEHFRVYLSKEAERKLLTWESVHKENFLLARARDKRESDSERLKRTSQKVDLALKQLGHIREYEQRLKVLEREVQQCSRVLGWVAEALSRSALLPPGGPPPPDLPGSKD

TRPM4 [3] = target: T1, TRPM4; assay: Glibenclamide on TRPM4 currents in INS-1 cells; conditions: pressure applied
TRPM4 [4] = assay: Agonist-induced TRPM4 currents in TrexHEK293 cells overexpressing TRPM4 (double carbachol application); format: cell-based, human
Method: Patch-clamp experiments were performed in the tight-seal whole-cell configuration at 21-25 ° C. High-resolution current recordings were acquired by a computer-based patch-clamp amplifier system (EPC-9, HEKA, Lambrecht, Germany). Patch pipettes had resistance between 3-6 MΩ after filling with the standard intracellular solution. […] Currents were filtered at 2.9 kHz and digitized at 100 μs intervals. Capacitive currents and series resistance were determined and corrected before each voltage ramp using the automatic capacitance compensation of the EPC-9. The low-resolution temporal development of membrane currents was assessed by extracting the current amplitude at -80 mV or +80 mV from individual ramp current records. Data analysis, statistical analysis and graphical display of patch-clamp experiments were done using the Igor […] software program (Wavemetrics). […] Cells were treated with carbachol twice according to protocol used in the calcium measurement experiments (n=5). First, to induce exocytosis of TRPM4 containing vesicles and second to activate the new pool of TRPM4 present in the plasma membrane. Utilizing Ca^2+ imaging techniques, fura-2-AM loaded cells were stimulated with 1 mM carbachol for 200 s followed by washout and a second stimulation (FIG. 9A). […]

[5] = 600 s, read-out: KD, dose-response fit of TRPM4 activation, secondary phase

Kd (TRPM4 [1]; 80 s, read-out: KD, dose-response fit of TRPM4 activation, first phase): 1700 nM
Kd (TRPM4 [1]; [5]): 1200 nM
SMILES: [Ca+2] [Ca^2+]
Kd (TRPM4 [2]; [5]): 1300 nM
Kd (TRPM4 [2]; peak of first phase, read-out: KD, dose-response fit of TRPM4 activation, first phase): 1200 nM

SMILES: COc1ccc(Cl)cc1C(=O)NCCc1ccc(S(=O)(=O)NC(=O)NC2CCCCC2)cc1 [Glibenclamide, glibenclamide]
effect on TRPM4 channels (TRPM4 [3]): activates TRPM4 channels

SMILES: C[N+](C)(C)CCOC(N)=O [carbachol]
TRPM4 current amplitude (TRPM4 [4]; first application of 1 mM carbachol): less than 1 nA
TRPM4 current amplitude (TRPM4 [4]; second carbachol application after washout): around 10 nA
